Converted amounts (≈) assume the structure as drawn. Read-outs that look alike come from different tables or passages of the source. Residues, ends and D or L forms follow the SMILES beside them. No end group written: not given here.
Key:
S. typhimurium CVCC533 = type: cell-based, Salmonella typhimurium
Description: (§1) The minimum inhibitory concentration (MIC) and minimum bactericidal concentration (MBC) of peptides were determined by the microtiter broth dilution method according to Clinical and Laboratory Standards Institute (CLSI) guidelines. […] PBS was used as the negative control. […] The MBC value was calculated as the lowest concentration of peptides resulting in a 99.9% reduction of the original inoculum. All experiments were repeated three times.

S. aureus CVCC546 = type: cell-based, Staphylococcus aureus
Description: as §1

E. coli 0111: B4 LPS = assay: BC (BODIPY-TR-cadaverine) displacement assay, binding to LPS; design: species or system Escherichia coli; unit not given here; conditions: Fig. 4a source data, mean
Description: The binding of peptides to LPS was determined according to the method described previously[34],[59]. In brief, E. coli 0111: B4 LPS (40 μg/mL) and BODIPY-TR-cadaverine (BC) (10 μM) were mixed in 50 mM Tris buffer (pH = 7.4) in equal proportions and added to a 96-well black plate (180 μL/well) in the dark. Different concentrations of chimeric peptide R7 and its parental (20 μL) were added into each well and detected by a fluorescence spectrophotometry at room temperature (excitation wavelength 580 nm, emission wavelength 620 nm). The change in relative fluorescence was recorded and the BC displacement rate was calculated. Polymycin B (PMB) was used as the positive control.

Escherichia coli CVCC195 = type: cell-based
Description: as §1

[1] = tested on: Staphylococcus aureus ATCC43300; type: cell-based; conditions: ATCC43300, 18 h
Description: as §1

[2] = tested on: E. coli, S. typhimurium and S. aureus; type: cell-based; conditions: 18 h
Description: as §1

[3] = lowest concentration giving 99.9% reduction of the inoculum, repeated three times
[4] = microtiter broth dilution, 10^5 CFU/mL, 37 °C, 16 ~ 18 h, repeated three times

**Q.** For polymyxin B [PMB, reference compound], which MBC (S. typhimurium CVCC533; [3]) is on record?
**A.** Its MBC is 8 µM.

**Q.** And the MIC (S. typhimurium CVCC533; [4])?
**A.** Its MIC is 8 µM.

**Q.** And the MBC (S. aureus CVCC546; [3])?
**A.** The MBC was over 64 µM.

**Q.** And the MIC (S. aureus CVCC546; [4])?
**A.** Its MIC is over 64 µM.

**Q.** What about the “binding affinity to LPS” value (E. coli 0111: B4 LPS; peptide concentration 0.05 μM) of the same molecule?
**A.** Its value is 10.8258.

**Q.** What about the “binding affinity to LPS” value (E. coli 0111: B4 LPS; peptide concentration 0.1 μM) of the same molecule?
**A.** The value was 13.138.

**Q.** And the “binding affinity to LPS” value (E. coli 0111: B4 LPS; peptide concentration 0.5 μM)?
**A.** The value was 19.3303.

**Q.** What about the “binding affinity to LPS” value (E. coli 0111: B4 LPS; peptide concentration 1 μM) of the same molecule?
**A.** Its value is 24.2435.

**Q.** What about the “binding affinity to LPS” value (E. coli 0111: B4 LPS; peptide concentration 5 μM) of the same molecule?
**A.** Its value is 53.9917.

**Q.** What about the “binding affinity to LPS” value (E. coli 0111: B4 LPS; peptide concentration 10 μM) of the same molecule?
**A.** Its value is 65.3662.

**Q.** What about the “binding affinity to LPS” value (E. coli 0111: B4 LPS; peptide concentration 50 μM) of the same molecule?
**A.** Its value is 89.1421.

**Q.** And the “binding affinity to LPS” value (E. coli 0111: B4 LPS; peptide concentration 100 μM)?
**A.** The value was 85.6684.

**Q.** What about the MBC (Escherichia coli CVCC195; [3]) of the same molecule?
**A.** The MBC was 1 µM.

**Q.** And the MIC (Escherichia coli CVCC195; [4])?
**A.** Its MIC is 1 µM.

**Q.** Which results are given for `CSCC[C@H](NC(=O)[C@H](CCCNC(=N)N)NC(=O)[C@H](Cc1c[nH]c2ccccc12)NC(=O)[C@H](C)NC(=O)[C@H](Cc1c[nH]c2ccccc12)NC(=O)[C@H](CCCNC(=N)N)NC(=O)[C@H](Cc1c[nH]c2ccccc12)NC(=O)[C@H](C)NC(=O)[C@H](CCCCN)NC(=O)[C@H](Cc1ccccc1)NC(=O)[C@@H](N)CCCNC(=N)N)C(=O)N[C@@H](CCCCN)C(=O)N[C@@H](CCCCN)C(=O)N[C@@H](CC(C)C)C(=O)N[C@@H](C)C(=O)N[C@@H](C)C(=O)N1CCC[C@H]1C(=O)N[C@@H](CO)C(=O)O` [R-L7] (H-RFKAWRWAWRMKKLAAPS-OH)?
**A.** MIC (S. typhimurium CVCC533; CVCC533, 18 h): 18.1 µM (≈ 41.4 µg/mL); MIC (S. aureus CVCC546; CVCC546, 18 h): 18.1 µM (≈ 41.4 µg/mL); MIC (Escherichia coli CVCC195; CVCC195, 18 h): 2.26 µM (≈ 5.17 µg/mL); MIC [1]: 18.1 µM (≈ 41.4 µg/mL)

**Q.** Which results are given for `CC(C)[C@H](NC(=O)[C@H](CCCCN)NC(=O)[C@H](Cc1c[nH]c2ccccc12)NC(=O)[C@H](CCCNC(=N)N)NC(=O)CNC(=O)[C@H](CCC(N)=O)NC(=O)[C@@H](NC(=O)[C@@H](N)CCCNC(=N)N)C(C)C)C(=O)N[C@@H](CCCNC(=N)N)C(=O)N[C@@H](C)C(=O)N[C@@H](CO)C(=O)N[C@@H](Cc1ccccc1)C(=O)N[C@@H](Cc1ccccc1)C(=O)N[C@@H](CCCCN)C(=O)O` [LBP14, reference compound] (H-RVQGRWKVRASFFK-OH)?
**A.** MBC (S. typhimurium CVCC533; CVCC533, 18 h): 18.1 µM (≈ 31.9 µg/mL); MIC (S. typhimurium CVCC533; CVCC533, 18 h): 18.1 µM (≈ 31.9 µg/mL); MBC (S. aureus CVCC546; CVCC546, 18 h): >36.2 µM; MIC (S. aureus CVCC546; CVCC546, 18 h): 36.2 µM (≈ 63.9 µg/mL); MBC (Escherichia coli CVCC195; CVCC195, 18 h): 4.53 µM (≈ 8 µg/mL); MIC (Escherichia coli CVCC195; CVCC195, 18 h): 4.53 µM (≈ 8 µg/mL); MBC [1]: 36.2 µM (≈ 63.9 µg/mL); MIC [1]: 36.2 µM (≈ 63.9 µg/mL)

**Q.** What does the source list for “RVQGRWKVRASFFKEAAAKEAAAKFKAWRWAWRMKKLAAPS [A7]”?
**A.** MBC (S. typhimurium CVCC533; CVCC533, 18 h): >36.2 µM; MIC (S. typhimurium CVCC533; CVCC533, 18 h): >36.2 µM; MBC (S. aureus CVCC546; CVCC546, 18 h): >36.2 µM; MIC (S. aureus CVCC546; CVCC546, 18 h): >36.2 µM; MBC (Escherichia coli CVCC195; CVCC195, 18 h): 36.2 µM; MIC (Escherichia coli CVCC195; CVCC195, 18 h): 36.2 µM; MBC [1]: >36.2 µM; MIC [1]: >36.2 µM; antibacterial activity (MIC) [2]: ≥ 18.1 µM

**Q.** Which results are given for `CC(C)[C@H](NC(=O)[C@H](CCCCN)NC(=O)[C@H](Cc1c[nH]c2ccccc12)NC(=O)[C@H](CCCNC(=N)N)NC(=O)CNC(=O)[C@H](CCC(N)=O)NC(=O)[C@@H](NC(=O)[C@@H](N)CCCNC(=N)N)C(C)C)C(=O)N[C@@H](CCCNC(=N)N)C(=O)N[C@@H](C)C(=O)N[C@@H](CO)C(=O)N[C@@H](Cc1ccccc1)C(=O)N[C@@H](Cc1ccccc1)C(=O)N[C@@H](CCCCN)C(=O)N[C@@H](CCCNC(=N)N)C(=O)N[C@@H](CCCCN)C(=O)N[C@@H](CCCNC(=N)N)C(=O)O` [LBP14-RKR] (H-RVQGRWKVRASFFKRKR-OH)?
**A.** MIC (S. typhimurium CVCC533; CVCC533, 18 h): 4.53 µM (≈ 9.99 µg/mL); MIC (S. aureus CVCC546; CVCC546, 18 h): 9.06 µM (≈ 20 µg/mL); MIC (Escherichia coli CVCC195; CVCC195, 18 h): 2.26 µM (≈ 4.98 µg/mL); MIC [1]: 4.53 µM (≈ 9.99 µg/mL)

**Q.** Which results are given for `CSCC[C@H](NC(=O)[C@H](CCCNC(=N)N)NC(=O)[C@H](Cc1c[nH]c2ccccc12)NC(=O)[C@H](C)NC(=O)[C@H](Cc1c[nH]c2ccccc12)NC(=O)[C@H](CCCNC(=N)N)NC(=O)[C@H](Cc1c[nH]c2ccccc12)NC(=O)[C@H](C)NC(=O)[C@H](CCCCN)NC(=O)[C@H](Cc1ccccc1)NC(=O)[C@H](CO)NC(=O)CNC(=O)CNC(=O)CNC(=O)CNC(=O)[C@H](CCCCN)NC(=O)[C@H](Cc1ccccc1)NC(=O)[C@H](Cc1ccccc1)NC(=O)[C@H](CO)NC(=O)[C@H](C)NC(=O)[C@H](CCCNC(=N)N)NC(=O)[C@@H](NC(=O)[C@H](CCCCN)NC(=O)[C@H](Cc1c[nH]c2ccccc12)NC(=O)[C@H](CCCNC(=N)N)NC(=O)CNC(=O)[C@H](CCC(N)=O)NC(=O)[C@@H](NC(=O)[C@@H](N)CCCNC(=N)N)C(C)C)C(C)C)C(=O)N[C@@H](CCCCN)C(=O)N[C@@H](CCCCN)C(=O)N[C@@H](CC(C)C)C(=O)N[C@@H](C)C(=O)N[C@@H](C)C(=O)N1CCC[C@H]1C(=O)N[C@@H](CO)C(=O)O` [G7] (H-RVQGRWKVRASFFKGGGGSFKAWRWAWRMKKLAAPS-OH)?
**A.** MIC (S. typhimurium CVCC533; CVCC533, 18 h): >36.2 µM; MBC (S. aureus CVCC546; CVCC546, 18 h): >36.2 µM; MIC (S. aureus CVCC546; CVCC546, 18 h): >36.2 µM; MBC (Escherichia coli CVCC195; CVCC195, 18 h): 18.1 µM (≈ 75.9 µg/mL); MIC (Escherichia coli CVCC195; CVCC195, 18 h): 18.1 µM (≈ 75.9 µg/mL); MBC [1]: >36.2 µM; MIC [1]: >36.2 µM; antibacterial activity (MIC) [2]: ≥ 18.1 µM

**Q.** With `CC(C)[C@H](NC(=O)[C@H](CCCCN)NC(=O)[C@H](Cc1c[nH]c2ccccc12)NC(=O)[C@H](CCCNC(=N)N)NC(=O)CNC(=O)[C@H](CCC(N)=O)NC(=O)[C@@H](NC(=O)[C@@H](N)CCCNC(=N)N)C(C)C)C(=O)N[C@@H](CCCNC(=N)N)C(=O)N[C@@H](C)C(=O)N[C@@H](CO)C(=O)N[C@@H](Cc1ccccc1)C(=O)N[C@@H](Cc1ccccc1)C(=O)N[C@@H](CCCCN)C(=O)N[C@@H](CCCNC(=N)N)C(=O)N[C@@H](CCCCN)C(=O)N[C@@H](CCCNC(=N)N)C(=O)N[C@@H](CCCNC(=N)N)C(=O)O` [LBP14-RKRR] (H-RVQGRWKVRASFFKRKRR-OH) as the molecule, how does the MIC (S. typhimurium CVCC533; CVCC533, 18 h) read?
**A.** Its MIC is 4.53 µM (≈ 10.7 µg/mL).

**Q.** And the MBC (S. aureus CVCC546; CVCC546, 18 h)?
**A.** The MBC was 9.06 µM (≈ 21.4 µg/mL).

**Q.** What about the MIC (S. aureus CVCC546; CVCC546, 18 h) of the same molecule?
**A.** Its MIC is 9.06 µM (≈ 21.4 µg/mL).

**Q.** What about the MBC (Escherichia coli CVCC195; CVCC195, 18 h) of the same molecule?
**A.** The MBC was 2.26 µM (≈ 5.34 µg/mL).

**Q.** What about the MIC (Escherichia coli CVCC195; CVCC195, 18 h) of the same molecule?
**A.** Its MIC is 2.26 µM (≈ 5.34 µg/mL).

**Q.** What about the MIC [1] of the same molecule?
**A.** The MIC was 4.53 µM (≈ 10.7 µg/mL).

Reference: paper PMC10654507, “A cleavable chimeric peptide with targeting and killing domains enhances LPS neutralization and antibacterial properties against multi-drug resistant E. coli” (Communications Biology, 2023)
